Reference: paper PMC2692652 (Biochemistry, 2009)

Assays:
[1] = tested on: M. tb PGDH; settings: cited from earlier work
[2] = target: Human PGDH (Homo sapiens, UniProt O43175); experiment: Inhibition of human PGDH; type: biochemical; settings: unpublished observation
[3] = target: T1, Native M. tb PGDH (Mycobacterium tuberculosis, UniProt P9WNX3); settings: read-out: Ki, HPAP (substrate inhibition); cited from earlier work
[4] = target: T1, Native M. tb PGDH; experiment: Stopped-flow time course of NADH turnover with kinetic simulation to Scheme 2; type: biochemical; settings: for k+i / k-i: from simulation
[5] = target: T1, Native M. tb PGDH; type: biochemical; settings: high HPAP level where substrate inhibition is significant, pH 7.5
[6] = target: T1, Native M. tb PGDH; type: biochemical; settings: HPAP 400 μM, NADH varied, 200 mM potassium phosphate, pH 7.5
[7] = tested on: M. tb PGDH; settings: cited from earlier work; remark: listed apart in the source
[8] = target: M. tb PGDH; experiment: Transient binding of NADH to the enzyme in the absence of substrate; parameters: species or system Mycobacterium tuberculosis; settings: read-out: Kd of NADH at the second (anion-binding) site; calculated from the rates of NADH binding determined in the absence of substrate
[9] = target: T1, Native M. tb PGDH; type: binding; settings: no substrate, excitation 295 nm, fluorescence 420 nm, pH 7.5
[10] = step ES + N = ESN (NADH to active site)
[11] = step ES + N = NES (NADH to second site)
[12] = step ESN + N = NESN (NADH to second site)
[13] = step SES + N = SESN (NADH to active site)

T1 sequence (P9WNX3 whole entry): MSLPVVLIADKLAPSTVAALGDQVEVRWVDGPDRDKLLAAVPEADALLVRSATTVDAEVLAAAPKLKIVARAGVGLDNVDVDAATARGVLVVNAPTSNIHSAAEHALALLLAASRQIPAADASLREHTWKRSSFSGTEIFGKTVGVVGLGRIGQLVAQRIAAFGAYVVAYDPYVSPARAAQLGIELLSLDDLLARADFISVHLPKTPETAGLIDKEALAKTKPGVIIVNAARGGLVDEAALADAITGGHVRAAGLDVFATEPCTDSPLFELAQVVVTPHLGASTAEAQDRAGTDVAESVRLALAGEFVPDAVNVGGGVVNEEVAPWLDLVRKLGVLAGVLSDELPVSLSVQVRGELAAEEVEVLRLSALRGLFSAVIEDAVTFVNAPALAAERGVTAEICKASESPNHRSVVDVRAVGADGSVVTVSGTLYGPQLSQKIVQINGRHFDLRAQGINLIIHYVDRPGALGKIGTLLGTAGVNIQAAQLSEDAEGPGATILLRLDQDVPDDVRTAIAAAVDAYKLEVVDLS
Human PGDH, sequence (O43175 whole entry): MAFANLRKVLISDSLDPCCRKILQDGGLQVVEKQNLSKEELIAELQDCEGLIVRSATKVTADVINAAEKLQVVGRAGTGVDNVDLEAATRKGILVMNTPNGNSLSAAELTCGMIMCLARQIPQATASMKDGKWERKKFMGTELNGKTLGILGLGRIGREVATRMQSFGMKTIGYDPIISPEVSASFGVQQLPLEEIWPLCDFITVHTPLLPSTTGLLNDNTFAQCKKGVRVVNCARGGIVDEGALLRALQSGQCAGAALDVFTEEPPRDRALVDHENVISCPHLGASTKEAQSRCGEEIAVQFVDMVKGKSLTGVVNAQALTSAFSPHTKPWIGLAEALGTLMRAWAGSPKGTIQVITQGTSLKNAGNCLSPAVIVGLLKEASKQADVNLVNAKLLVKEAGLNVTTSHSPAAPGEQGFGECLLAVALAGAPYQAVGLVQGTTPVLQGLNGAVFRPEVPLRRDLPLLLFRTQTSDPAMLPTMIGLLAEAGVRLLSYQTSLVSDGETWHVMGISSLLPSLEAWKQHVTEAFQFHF

**Q.** With O=C(O)C(O)C(O)C(=O)O (stereo not shown) [tartrate] as the compound, how does the “Effect of tartrate binding to the anion-binding site on rate of catalysis” value [1] read?
**A.** does not effect the rate of catalysis

**Q.** What does the source list for hydroxypyruvic acid phosphate [HPAP]?
**A.** Substrate inhibition by HPAP [2]: displays substrate inhibition; Ki [3]: 950 ± 120 µM; Kd ([4]; read-out: Kd for HPAP at the second (anion-binding) site): ~8 µM

**Q.** Which “Inhibition by L-serine” value [2] does the source give for N[C@@H](CO)C(=O)O [L-serine] here?
**A.** not inhibited

**Q.** What about the “n (Hill coefficient), serine inhibition, High Substrate” value [5] of the same compound?
**A.** 1.5 ± 0.1

**Q.** For NADH, which “K0.5, Activity vs NADH” value [6] is on record?
**A.** 106 ± 5 µM

**Q.** And the “n (Hill coefficient), Activity vs NADH” value [6]?
**A.** 2.5 ± 0.2

**Q.** What about the “k+i” value [7] of the same compound?
**A.** 0.37 ^c μM^-1s^-1

**Q.** What about the k-i [7] of the same compound?
**A.** 0.22 ^c s^-1

**Q.** And the Kd [8]?
**A.** ~0.6 µM

**Q.** What about the “k+i” value [4, 10] of the same compound?
**A.** 4.09e+08 M⁻¹ s⁻¹

**Q.** And the k-i [4, 10]?
**A.** 70 s⁻¹

**Q.** And the “k+i” value [4, 11]?
**A.** 0 M⁻¹ s⁻¹

**Q.** And the k-i [4, 11]?
**A.** 0 s⁻¹

**Q.** And the “k+i” value [4, 12]?
**A.** 0 M⁻¹ s⁻¹

**Q.** What about the k-i [4, 12] of the same compound?
**A.** 0 s⁻¹

**Q.** And the “k+i” value ([4]; step NES + N = NESN (NADH to active site))?
**A.** 7.59e+08 M⁻¹ s⁻¹

**Q.** What about the “k+i” value [4, 13] of the same compound?
**A.** 190000 M⁻¹ s⁻¹

**Q.** And the k-i [4, 13]?
**A.** 3 s⁻¹

**Q.** What about the “K0.5, FRET vs NADH” value [9] of the same compound?
**A.** 3.2 ± 0.1 µM

**Q.** What about the “n (Hill coefficient), FRET vs NADH” value [9] of the same compound?
**A.** 1.6 ± 0.1
